Key:
[1] = target: T1, β2 -adrenergic receptor (Rattus norvegicus, UniProt P10608); experiment: Action of drugs on the spontaneous contractions of isolated pregnant rat myometrium (β2-adrenergic receptor stimulating activity); format: cell-based; conditions: isolated pregnant SD rat uterus (pregnancy day 21), Magnus method; read-out: EC50 value (activity to relax 50% of the spontaneous contractions of rat myometrium)
T1 construct: The uteri of pregnant SD rats (pregnancy day 21) were isolated; from tissue; host or cells: longitudinal uterine muscle strips of pregnant SD rats (day 21)
Experimental: Thus, the compounds of the present invention have markedly potent β2 -adrenergic receptor stimulating effect and therefore are remarkably useful as β2 -adrenergic receptor stimulating agents.
Action of Drugs on the Spontaneous Contractions of Isolated Pregnant Rat Myometrium
The uteri of pregnant SD rats (pregnancy day 21) were isolated and longitudinal uterine muscle strips (about 15 mm in length and about 5 mm in width) free from the basal plate were prepared. The experiment was conducted according to the Magnus method. The sample with a tension of 1 g was exposed to Locke-Ringer solution maintained at 37° C. and gassed with a mixture of 95% of oxygen and 5% of carbon dioxide. The spontaneous contractions of the myometrium were induced isometrically via a pressure transducer and recorded on a rectigram. The drug efficacy was evaluated as 50% inhibitory drug concentration (i.e., EC50 value) by comparing the total degree of uterine contraction during 5 minutes before the addition of the drug with the total degree of uterine contraction during 5 minutes after the addition of the drug.

[2] = tested on: β1 -adrenergic receptor; experiment: Action of drugs on the atrial contractions of isolated rat atrium (β1-adrenergic receptor stimulating activity); format: cell-based; conditions: isolated SD male rat atrium, Magnus method
Experimental: Thus, the compounds of the present invention have markedly weak β1 -adrenergic receptor stimulating effect in comparison with the aforementioned β2 -adrenergic receptor stimulating effect.
Action of Drugs on the Atrial Contractions of Isolated Atrium
The atria of SD male rats (350 to 400 g in body weight) were isolated and the experiment was conducted according to the Magnus method. The sample with a tension of 1 g was exposed to Krebs-Henseleit solution maintained at 37° C. and gassed with a mixture of 95% of oxygen and 5% of carbon dioxide. The atrial contraction was induced isometrically via a pressure transducer and recorded on a rectigram. After addition of the drug, its efficacy was evaluated as drug concentration that increased 20 beats per minute of heart rate (i.e., EC20 value).

[3] = tested on: female ICR mice; experiment: Acute toxicity test; format: in vivo; conditions: intravenous, 30 mg/kg in saline
Experimental: To 3 female ICR mice of 4 weeks age was administered intravenously ethyl 2-[(2S)-2-[[(2RS)-2-hydroxy-2-(4-hydroxy-3-hydroxymethylphenyl)ethyl]amino]-1,2,3,4-tetrahydronaphthalen-7-yloxy]acetate dissolved in saline at dose of 30 mg/kg.

T1 sequence (P10608 whole entry): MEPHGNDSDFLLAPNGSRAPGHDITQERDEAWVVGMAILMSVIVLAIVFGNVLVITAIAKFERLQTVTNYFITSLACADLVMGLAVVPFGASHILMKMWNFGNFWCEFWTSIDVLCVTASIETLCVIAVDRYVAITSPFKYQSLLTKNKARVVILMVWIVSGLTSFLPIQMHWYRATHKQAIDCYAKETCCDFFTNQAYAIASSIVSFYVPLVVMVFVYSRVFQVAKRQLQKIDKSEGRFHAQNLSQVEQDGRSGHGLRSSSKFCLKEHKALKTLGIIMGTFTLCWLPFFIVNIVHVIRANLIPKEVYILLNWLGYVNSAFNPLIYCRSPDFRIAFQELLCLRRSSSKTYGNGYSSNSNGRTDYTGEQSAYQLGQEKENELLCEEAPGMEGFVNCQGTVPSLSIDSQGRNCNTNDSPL

CCOC(=O)COc1ccc2c(c1)C[C@@H](NCC(O)c1ccc(O)c(CO)c1)CC2 (mixture of isomers) [Compound 4, Ethyl 2-[(2S)-2-[[(2RS)-2-hydroxy-2-(4-hydroxy-3-hydroxymethylphenyl)ethyl]amino]-1,2,3,4-tetrahydronaphthalen-7-yloxy]acetate]
EC50 [1]: 1.1 nM
EC20 value (concentration that increases 20 beats per minute of rat heart rate) [2]: 1.1×10^-6 mol concentration
death of animals during 24 hours after the administration [3]: No death of animals was observed
